The values below come from patent US6942876B2, “Analgesic compositions comprising anti-epileptic compounds and methods of using same” (Warner-Lambert Company, priority 1997, dated 2005).

The structures appear in SMILES notation.

For this assay, the system named is Carrageenan-induced thermal hyperalgesia. Description: carrageenan rat footpad thermal hyperalgesia test (Hargreaves test). It is filed as in vivo.

Method: In this example, gabapentin, naproxen sodium, and the combination of gabapentin and naproxen sodium were evaluated in a standard rat carrageenan footpad thermal hyperalgesia assay. This assay utilizes an extract of seaweed (carrageenan) that, when injected into the footpad of test animals, causes a sterile inflammation, thereby lowering the pain threshold.
Male Sprague-Dawley rats (200-250 g, Sasco Laboratories) were used. Rats were group housed 5/cage on a 12-hour light:dark cycle with free access to food and water. Rats received only one dose of a drug or drug combination. All drugs were administered orally by gavage.
Dose-effect curves were first determined for (1) gabapentin by itself and (2) a prototypic NSAID (e.g., naproxen) by itself The ED50 value and 95% confidence limits of each agent was determined, as was the time to peak effect. […]
Carrageenan-induced thermal hyperalgesia: Rats were acclimated to a testing chamber whose glass floor was maintained at 25° C. Thirty minutes later, a high intensity beam of light was focused through the glass on the ventral surface of each hindpaw, and the latency to reflex withdrawal of the paw from the light beam was measured to the nearest 0.1 second. […]
Data were expressed as the mean ±SEM. […]

The ED50 is the dose at which the effect has come halfway, by size or by number of responders. For the molecule `COc1ccc2cc([C@H](C)C(=O)O)ccc2c1` [Naproxen sodium, naproxen sodium], under “PO, gabapentin 3-100 mg/kg, naproxen sodium 0.3-30 mg/kg, fixed-ratio combinations at various dosages”, the anti-hyperalgesic action entry is “anti-hyperalgesic actions”. Also, the 50% effective dose (ED50) (Rattus norvegicus, 2 h, single drug, oral gavage, male Sprague-Dawley rats, paw flick latency 120 min after dosing, 95% confidence limits in parentheses) was 0.36 mg/kg.
